Laboratory results from EP0745599A2, “1-(3-Heterocyclylphenyl)-s-triazine-2,4,6-oxo or thiotrione herbicidal agents” (American Cyanamid Company, priority 1995, dated 1996).

Key:
Type in all cases: in vivo
Settings in all cases: rated four to five weeks after treatment
[1] = test system: CASSIA OBTUSIFOLIA, L.; assay: Postemergence herbicidal evaluation, CASOB (Sicklepod)
Protocol: (§1) In the tests, seedling plants are grown in jiffy flats for about two weeks. The test compounds are dispersed in 50/50 acetone/water mixtures containing 0.5% TWEEN®20, a polyoxyethylene sorbitan monolaurate surfactant of Atlas Chemical Industries, in sufficient quantities to provide the equivalent of about 0.125 kg to 0.500 kg per hectare of active compound when applied to the plants through a spray nozzle operating at 40 psi for a predetermined time. After spraying, the plants are placed on greenhouse benches and are cared for in the usual manner, commensurate with conventional greenhouse practices. From four to five weeks after treatment, the seedling plants are examined and rated according to the rating system set forth below. Where more than one test is involved for a given compound, the data are averaged.
(§2) Results of herbicide evaluation are expressed on a rating scale (0-9). The scale is based upon a visual observation of plant stand, vigor, malformation, size, chlorosis and overall plant appearance as compared with a control.

[2] = test system: ECHINOCHLOA CRUS-GALLI, (L) BEAU; assay: Postemergence herbicidal evaluation, ECHCG (Barnyardgrass)
Protocol: as §1, §2

[3] = test system: SETARIA VIRIDIS, (L) BEAU; assay: Postemergence herbicidal evaluation, SETVI (Foxtail, Green)
Protocol: as §1, §2

[4] = test system: TRITICUM AESTIVUM, CV. APOLLO; assay: Postemergence herbicidal evaluation, TRZAWO (Wheat, Winter, CV. APOLLO)
Protocol: as §1, §2

[5] = test system: ABUTILON THEOPHRASTI, MEDIC.; assay: Preemergence herbicidal evaluation, ABUTH (Velvetleaf); design: key to ABUTH: visual rating scale 0-9 vs control
Description: as §2
(§3) The preemergence herbicidal activity of the test compounds of the present invention is exemplified by the following tests in which the seeds of a variety of monocotyledonous and dicotyledonous plants are separately mixed with potting soil and planted on top of approximately one inch of soil in separate pint cups. After planting, the cups are sprayed with the selected aqueous acetone solution containing test compound in sufficient quantity to provide the equivalent of about 0.125 to 0.50 kg per hectare of test compound per cup. The treated cups are then placed on greenhouse benches, watered and cared for in accordance with conventional greenhouse procedures. From four to five weeks after treatment, the tests are terminated and each cup is examined and rated according to the rating system provided in Example 42.

[6] = test system: AMBROSIA ARTEMISIIFOLIA, L.; assay: Preemergence herbicidal evaluation, AMBEL (Ragweed, Common); design: key to AMBEL: visual rating scale 0-9 vs control
Description: as §2, §3

[7] = test system: CASSIA OBTUSIFOLIA, L.; assay: Preemergence herbicidal evaluation, CASOB (Sicklepod); design: key to CASOB: visual rating scale 0-9 vs control
Description: as §2, §3

[8] = test system: CHENOPODIUM ALBUM, L.; assay: Preemergence herbicidal evaluation, CHEAL (Lambsquarters, Common); design: key to CHEAL: visual rating scale 0-9 vs control
Description: as §2, §3

[9] = test system: IPOMOEA SPP.; assay: Preemergence herbicidal evaluation, IPOSS (Morningglory Spp.); design: key to IPOSS: visual rating scale 0-9 vs control
Description: as §2, §3

[10] = test system: GALIUM APARINE; assay: Preemergence herbicidal evaluation, GALAP (Galium); design: key to GALAP: visual rating scale 0-9 vs control
Description: as §2, §3

[11] = test system: ECHINOCHLOA CRUS-GALLI, (L) BEAU; assay: Preemergence herbicidal evaluation, ECHCG (Barnyardgrass); design: key to ECHCG: visual rating scale 0-9 vs control
Description: as §2, §3

[12] = test system: SETARIA VIRIDIS, (L) BEAU; assay: Preemergence herbicidal evaluation, SETVI (Foxtail, Green); design: key to SETVI: visual rating scale 0-9 vs control
Description: as §2, §3

[13] = test system: GLYCINE MAX(L)MERR. CV. WILLIAMS; assay: Preemergence herbicidal evaluation, GLXMAW (Soybean, Williams); design: key to GLXMAW: visual rating scale 0-9 vs control
Description: as §2, §3

[14] = test system: ORYZA SATIVA, L. TEBONNET; assay: Preemergence herbicidal evaluation, ORYSAT (Rice, Tebonnet); design: key to ORYSAT: visual rating scale 0-9 vs control
Description: as §2, §3

[15] = test system: TRITICUM AESTIVUM, CV. APOLLO; assay: Preemergence herbicidal evaluation, TRZAWO (Wheat, Winter, CV. APOLLO); design: key to TRZAWO: visual rating scale 0-9 vs control
Description: as §2, §3

[16] = test system: ZEA MAYS L.; assay: Preemergence herbicidal evaluation, ZEAMX (Corn, Field); design: key to ZEAMX: visual rating scale 0-9 vs control
Description: as §2, §3

[17] = test system: ORYZA SATIVA, L. TEBONNET; assay: Postemergence herbicidal evaluation, ORYSAT (Rice, Tebonnet)
Protocol: as §1, §2

CC(C)OC(=O)Cn1c(=O)n(C)c(=O)n(-c2cc(N3C(=O)C4C[S+]([O-])CCN4C3=O)c(F)cc2Cl)c1=O (stereo not drawn) [Compound 14, Isopropyl 3-[2-chloro-4-fluoro-5-(tetra-hydro-1,3,7-trioxo-1H-imidazo[5,1-c][1,4]-thiazin-2(3H)-yl)phenyl]tetrahydro-5-methyl-2,4,6-trioxo-s-triazine-1(2H)-acetate]
Herbicide rating (0-9) CASOB ([1]; 0.125 kg/ha): 5.0 | Herbicide rating (0-9) CASOB ([1]; 0.250 kg/ha): 5.0 | Herbicide rating (0-9) CASOB ([1]; 0.500 kg/ha): 5.0 | Herbicide rating (0-9) ECHCG ([2]; 0.125 kg/ha): 0.0 | Herbicide rating (0-9) ECHCG ([2]; 0.250 kg/ha): 0.0 | Herbicide rating (0-9) ECHCG ([2]; 0.500 kg/ha): 0.0 | Herbicide rating (0-9) SETVI ([3]; 0.125 kg/ha): 1.0 | Herbicide rating (0-9) SETVI ([3]; 0.250 kg/ha): 1.0 | Herbicide rating (0-9) SETVI ([3]; 0.500 kg/ha): 1.0 | Herbicide rating (0-9) TRZAWO ([4]; 0.125 kg/ha): 2.0 | Herbicide rating (0-9) TRZAWO ([4]; 0.250 kg/ha): 2.0 | Herbicide rating (0-9) TRZAWO ([4]; 0.500 kg/ha): 2.0 | ABUTH ([5]; Rate 0.125 kg/ha): 0.0 | ABUTH ([5]; Rate 0.250 kg/ha): 0.0 | ABUTH ([5]; Rate 0.500 kg/ha): 4.0 | AMBEL ([6]; Rate 0.125 kg/ha): 0.0 | AMBEL ([6]; Rate 0.250 kg/ha): 2.0 | AMBEL ([6]; Rate 0.500 kg/ha): 3.0 | CASOB ([7]; Rate 0.125 kg/ha): 2.0 | CASOB ([7]; Rate 0.250 kg/ha): 2.0 | CASOB ([7]; Rate 0.500 kg/ha): 4.0 | CHEAL ([8]; Rate 0.125 kg/ha): 7.0 | CHEAL ([8]; Rate 0.250 kg/ha): 6.0 | CHEAL ([8]; Rate 0.500 kg/ha): 9.0 | IPOSS ([9]; Rate 0.125 kg/ha): 0.0 | IPOSS ([9]; Rate 0.250 kg/ha): 1.0 | IPOSS ([9]; Rate 0.500 kg/ha): 3.0 | GALAP ([10]; Rate 0.125 kg/ha): 7.0 | GALAP ([10]; Rate 0.250 kg/ha): 7.0 | GALAP ([10]; Rate 0.500 kg/ha): 9.0 | ECHCG ([11]; Rate 0.125 kg/ha): 0.0 | ECHCG ([11]; Rate 0.250 kg/ha): 0.0 | ECHCG ([11]; Rate 0.500 kg/ha): 0.0 | SETVI ([12]; Rate 0.125 kg/ha): 0.0 | SETVI ([12]; Rate 0.250 kg/ha): 0.0 | SETVI ([12]; Rate 0.500 kg/ha): 1.0 | GLXMAW ([13]; Rate 0.125 kg/ha): 0.0 | GLXMAW ([13]; Rate 0.250 kg/ha): 0.0 | GLXMAW ([13]; Rate 0.500 kg/ha): 0.0 | ORYSAT ([14]; Rate 0.125 kg/ha): 0.0 | ORYSAT ([14]; Rate 0.250 kg/ha): 2.0 | ORYSAT ([14]; Rate 0.500 kg/ha): 4.0 | TRZAWO ([15]; Rate 0.125 kg/ha): 0.0 | TRZAWO ([15]; Rate 0.250 kg/ha): 1.0 | TRZAWO ([15]; Rate 0.500 kg/ha): 2.0 | ZEAMX ([16]; Rate 0.125 kg/ha): 0.0 | ZEAMX ([16]; Rate 0.250 kg/ha): 0.0 | ZEAMX ([16]; Rate 0.500 kg/ha): 1.0

C#CCn1c(=O)n(CC=C)c(=O)n(-c2cc(N3C(=O)C4=C(CCCC4)C3=O)c(F)cc2Cl)c1=O [Compound 20, N-{5-[3-Allylhexahydro-2,4,6-trioxo-5-(2-propynyl)-s-triazin-1-yl]-4-chloro-2-fluoro-phenyl}-1-cyclohexene-1,2-dicarboximide]
Herbicide rating (0-9) ECHCG ([2]; 0.125 kg/ha): 0.0 | Herbicide rating (0-9) ECHCG ([2]; 0.250 kg/ha): 0.0 | Herbicide rating (0-9) ECHCG ([2]; 0.500 kg/ha): 0.0 | Herbicide rating (0-9) SETVI ([3]; 0.125 kg/ha): 0.0 | Herbicide rating (0-9) SETVI ([3]; 0.250 kg/ha): 0.0 | Herbicide rating (0-9) SETVI ([3]; 0.500 kg/ha): 0.0 | Herbicide rating (0-9) ORYSAT ([17]; 0.125 kg/ha): 2.0 | Herbicide rating (0-9) ORYSAT ([17]; 0.250 kg/ha): 2.0 | Herbicide rating (0-9) ORYSAT ([17]; 0.500 kg/ha): 2.0
